Laboratory results reported in patent publication US11279714B2, “Anti-infective compounds” (priority 2014, dated 2022).
In brackets after ≈: the same amount, converted by molar mass.

Columns and labels:
[1] = system: M. tuberculosis H37Rv expressing the green fluorescent protein (H37Rv-GFP); experiment: microbe, parasite or virus in culture; format: cell-based; conditions: for MIC50: Mycobacterium tuberculosis, H37RV, 120 h, read-out: QUM (MIC50)
[2] = system: Raw 264.7 cells infected with H37Rv-GFP; experiment: microbe, parasite or virus in culture; format: cell-based, M. tuberculosis; conditions: for MIC50: Mycobacterium tuberculosis, H37RV, 120 h, read-out: QIM (MIC50)

Structure (SMILES) | MIC50 [1] [µM] | MIC50 [2] [µM] | QUM (MIC50, uM) [1] | QIM (MIC50, uM) [2]
CN(C)C(=O)C1CCN(c2nc3sc(C(=O)Nc4ccc(-c5nn(C)cc5Cl)cc4)cc3s2)CC1 [Compound 276] | > 20 | < 1 |  | 
O=C(Nc1ccc2[nH]cnc2c1)c1cc2sc(N3CCOCC3)nc2s1 [Compound 113] | > 20 | > 20 |  | 
Cc1ccc(-c2ccc(NC(=O)c3cc4sc(N5CCC(C(=O)N(C)C)CC5)nc4s3)cc2)cn1.Cl [Compound 208] |  |  | +++ (+++ indicates <1 uM) | +++ (+++ indicates <1 uM)
COCCN(c1nc2sc(C(=O)Nc3ccc4oc(C)nc4c3)cc2s1)C1CC1 [Compound 270] | > 20 | > 20 |  | 
Cc1nc2cc(NC(=O)c3cc4sc(N5CCC(CC(=O)N(C)C)CC5)nc4s3)ccc2o1 [Compound 307] | < 1 | < 1 |  | 
N#Cc1ccc(NC(=O)c2cc3sc(N4CCC(O)CC4)nc3s2)cc1 [Compound 133] | 1 to 20 (≈ 0.384 to 7.69 µg/mL) | < 1 |  | 
CC1CCN(c2ccc(NC(=O)c3cc4sc(N5CCNCC5)nc4s3)cc2)CC1 [Compound 344] | 1 to 20 (≈ 0.442 to 8.83 µg/mL) | < 1 |  | 
Cc1nc2cc(NC(=O)c3cc4sc(N5CCN6CCCC6C5)nc4s3)ccc2o1 (stereo not shown) [Compound 323] | < 1 | < 1 |  | 
O=C(Nc1ccc(F)cn1)c1cc2sc(N3CCNCC3)nc2s1 [Compound 342] | 1 to 20 (≈ 0.363 to 7.27 µg/mL) | < 1 |  | 
CC(C)(C)CC(=O)NC1CCN(c2nc3sc(C(=O)Nc4ccc(-c5ccc(F)cn5)cc4)cc3s2)CC1 [Compound 349] | > 20 | < 1 |  | 
Cc1nc2cc(NC(=O)c3cc4sc(N5CCC(NC(=O)OC(C)(C)C)CC5)nc4s3)ccc2o1 [Compound 233] | 1 to 20 (≈ 0.514 to 10.3 µg/mL) | < 1 |  | 
O=C(Nc1ccc(-c2ccc(F)cn2)cc1)c1cc2sc(N3CCN4CCCC4C3)nc2s1 (stereo not shown) [Compound 324] | < 1 | < 1 |  | 
Cn1ccc(-c2ccc(NC(=O)c3cc4sc(NCCN5CCOCC5)nc4s3)cc2)n1 [Compound 319] | 1 to 20 (≈ 0.469 to 9.37 µg/mL) | < 1 |  | 
CN1CCN(CCNc2nc3sc(C(=O)Nc4ccc(-c5ccc(F)cn5)cc4)cc3s2)CC1 [Compound 325] | 1 to 20 (≈ 0.497 to 9.93 µg/mL) | < 1 |  | 
CN(CCCO)c1nc2sc(C(=O)Nc3ccc(-c4ccc(F)nc4)cc3)cc2s1 [Compound 291] | < 1 | < 1 |  | 
CN(CC(O)C(F)(F)F)c1nc2sc(C(=O)Nc3ccc(F)cc3)cc2s1 (stereo not shown) [Compound 316] | 1 to 20 (≈ 0.419 to 8.39 µg/mL) | < 1 |  | 
Cc1nc2cc(NC(=O)c3cc4sc(N(C)CC(O)C(F)(F)F)nc4s3)ccc2o1 (stereo not shown) [Compound 261] | < 1 | < 1 |  | 
COc1ccc(NC(=O)c2cc3sc(N4CCC(O)C4)nc3s2)cc1 (stereo not shown) [Compound 130] | 1 to 20 (≈ 0.375 to 7.51 µg/mL) | < 1 |  | 
O=C(Nc1ccc(F)cc1)c1cc2sc(NC3CCN(Cc4ccc(F)cc4)CC3)nc2s1 [Compound 314] | < 1 | < 1 |  | 
Cc1nc2cc(NC(=O)c3cc4sc(NCCCN5CCOCC5)nc4s3)ccc2o1 [Compound 296] | 1 to 20 (≈ 0.458 to 9.15 µg/mL) | < 1 |  | 
CC(C)(C)CC(=O)NC1CCN(c2nc3sc(C(=O)Nc4ccc(-c5ccc(F)nc5)cc4)cc3s2)CC1 [Compound 348] | > 20 | < 1 |  | 
CN(C)C(=O)CC1CCN(c2nc3sc(C(=O)Nc4ccc(F)cc4)cc3s2)CC1 [Compound 331] | < 1 | < 1 |  | 

Structure (SMILES) | MIC50 [1] [µM] | MIC50 [2] [µM] | QUM (MIC50, uM) [1] | QIM (MIC50, uM) [2]
O=C(O)c1ccc(NC(=O)c2cc3nc(N4CCCCC4)sc3s2)cc1 [Compound 19] | 1 to 20 (≈ 0.387 to 7.75 µg/mL) | > 20 |  | 
Cc1nc2cc(NC(=O)c3cc4sc(NCCN5CCOCC5)nc4s3)ccc2o1 [Compound 224] | 1 to 20 (≈ 0.444 to 8.87 µg/mL) | < 1 |  | 
O=C(Nc1ccc(F)cc1)c1cc2sc(NCC(O)C(F)(F)F)nc2s1 (stereo not shown) [Compound 330] | 1 to 20 (≈ 0.405 to 8.11 µg/mL) | < 1 |  | 
CN(C)C(=O)C1CCN(c2nc3sc(C(=O)Nc4ccc(-c5ccc(C(F)(F)F)nc5)cc4)cc3s2)CC1 [Compound 209] | < 1 | < 1 |  | 
CN(C)C(=O)[C@@H]1CCN(c2nc3sc(C(=O)Nc4ccc(F)cc4)cc3s2)C1 [Compound 309] | 1 to 20 (≈ 0.419 to 8.37 µg/mL) | < 1 |  | 
Cc1nc2cc(NC(=O)c3cc4sc(N5CCN(C(=O)N(C)C)CC5)nc4s3)ccc2o1 [Compound 237] | < 1 | < 1 |  | 
CN(CC(O)C(F)(F)F)c1nc2sc(C(=O)Nc3ccc(-c4ccc(F)cn4)cc3)cc2s1 (stereo not shown) [Compound 317] | 1 to 20 (≈ 0.497 to 9.93 µg/mL) | < 1 |  | 
O=C(Nc1ccc(-c2ccc(F)nc2)cc1)c1cc2sc(N3CCN(CCO)CC3)nc2s1 [Compound 337] | < 1 | < 1 |  | 
COCCN(c1nc2sc(C(=O)Nc3ccc4oc(C)nc4c3)cc2s1)C(C)C [Compound 242] | 1 to 20 (≈ 0.431 to 8.61 µg/mL) | < 1 |  | 
COc1ccc(NC(=O)c2cc3sc(N4CCc5cc(OC)ccc5C4)nc3s2)cc1 [Compound 168] | 1 to 20 (≈ 0.452 to 9.03 µg/mL) | < 1 |  | 
COCCNc1nc2sc(C(=O)Nc3ccc4oc(C)nc4c3)cc2s1 [Compound 266] | < 1 | < 1 |  | 
CN(C)C(=O)C1CCN(c2nc3sc(C(=O)Nc4ccc(-c5ccc(F)nc5)cc4)cc3s2)CC1 [Compound 216] | < 1 | < 1 |  | 
Cc1ccc(-c2ccc(NC(=O)c3cc4sc(NCCN5CCOCC5)nc4s3)cc2)nc1 [Compound 260] | 1 to 20 (≈ 0.48 to 9.59 µg/mL) | < 1 |  | 
C#CCOc1ccc(-c2ccc(NC(=O)c3cc4sc(N(C)CCOC)nc4s3)cc2)cc1 [Compound 358] | < 1 | < 1 |  | 
COCCN(C)c1nc2sc(C(=O)Nc3ccc(-c4ccc(OC)nc4)cc3)cc2s1 [Compound 265] | < 1 | < 1 |  | 
O=C(Nc1ccc(-c2ccc(F)cn2)cc1)c1cc2sc(N3CCNCC3)nc2s1 [Compound 315] | 1 to 20 (≈ 0.44 to 8.79 µg/mL) | < 1 |  | 
COc1ccc(-c2ccc(NC(=O)c3cc4sc(N5CCC(C(=O)N(C)C)CC5)nc4s3)cc2)cn1 [Compound 213] | < 1 | < 1 |  | 
O=C(Nc1ccc(N2CCC(Oc3ccc(F)cc3)CC2)cc1)c1cc2sc(N3CCOCC3)nc2s1 [Compound 220] | > 20 | < 1 |  | 
Cc1nc2cc(NC(=O)c3sc4nc(N5CCOCC5)sc4c3OCc3ccccc3)ccc2o1 [Compound 185] | > 20 | > 20 |  | 
COCCN(C)c1nc2sc(C(=O)Nc3ccc(-c4ccc(F)nc4)cc3)cc2s1 [Compound 271] | < 1 | < 1 |  | 
Cc1nc2cc(NC(=O)c3cc4sc(N5CCC(Nc6ccc(F)cc6)CC5)nc4s3)ccc2o1 [Compound 320] | 1 to 20 (≈ 0.508 to 10.2 µg/mL) | < 1 |  | 
CN(C)C(=O)CC1CCN(c2nc3sc(C(=O)Nc4ccc(F)cc4)cc3s2)C1 (stereo not shown) [Compound 332] | < 1 | < 1 |  | 

Structure (SMILES) | MIC50 [1] [µM] | MIC50 [2] [µM] | QUM (MIC50, uM) [1] | QIM (MIC50, uM) [2]
O=C(Nc1ccc(F)cc1)c1cc2sc(N3CCC(COc4ccc(Cl)cc4)CC3)nc2s1 [Compound 245] | 1 to 20 (≈ 0.502 to 10 µg/mL) | < 1 |  | 
COC(=O)c1ccc(NC(=O)c2cc3nc(N4CCCCC4)sc3s2)cc1 [Compound 13] | 1 to 20 (≈ 0.402 to 8.03 µg/mL) | < 1 |  | 
CN(C)C(=O)C1CCN(c2nc3sc(C(=O)Nc4ccc(-c5nn(C)cc5F)cc4)cc3s2)CC1 [Compound 228] | < 1 | < 1 |  | 
O=C(Nc1ccc(OCc2ccccc2)cc1)c1cc2sc(N3CCCCC3)nc2s1 [Compound 44] | > 20 | < 1 |  | 
CNC(=O)C1CCN(c2nc3sc(C(=O)Nc4ccc5oc(C)nc5c4)cc3s2)CC1 [Compound 212] | 1 to 20 (≈ 0.456 to 9.11 µg/mL) | < 1 |  | 
O=C(Nc1ccc(F)cc1)c1cc2sc(NCCCN3CCOCC3)nc2s1 [Compound 327] | 1 to 20 (≈ 0.421 to 8.41 µg/mL) | 1 to 20 (≈ 0.421 to 8.41 µg/mL) |  | 
Cc1nc2cc(NC(=O)c3cc4sc(N(C)CCN5CCOCC5)nc4s3)ccc2o1 [Compound 225] | 1 to 20 (≈ 0.458 to 9.15 µg/mL) | < 1 |  | 
Cc1nc2cc(NC(=O)c3cc4sc(N(C)CCCO)nc4s3)ccc2o1 [Compound 238] | 1 to 20 (≈ 0.403 to 8.05 µg/mL) | < 1 |  | 
Cc1nc2cc(NC(=O)c3cc4sc(N(CCO)C(C)C)nc4s3)ccc2o1 [Compound 232] | 1 to 20 (≈ 0.417 to 8.33 µg/mL) | < 1 |  | 
O=C(Nc1ccc(N2CCC(Oc3ccc(Cl)cc3)CC2)cc1)c1cc2sc(N3CCOCC3)nc2s1 [Compound 193] | > 20 | < 1 |  | 
O=C(Nc1ccc(-c2ccc(F)nc2)cc1)c1cc2sc(N3CCN4CCCC4C3)nc2s1 (stereo not shown) [Compound 338] | < 1 | < 1 |  | 
CS(=O)(=O)O.CS(=O)(=O)O.O=C(Nc1ccc(-c2ccc(F)cn2)cc1)c1cc2sc(NCCN3CCOCC3)nc2s1 [Compound 360] | < 1 |  |  | +++ (+++ indicates <1 uM)
O=C(Nc1ccc(F)cc1)c1cc2sc(NC3CCCN(c4ccc(F)cc4)C3)nc2s1 (stereo not shown) [Compound 318] | > 20 | < 1 |  | 
Cc1nc2cc(NC(=O)c3cc4sc(N5CCOC(CO)C5)nc4s3)ccc2o1 (stereo not shown) [Compound 152] | 1 to 20 (≈ 0.431 to 8.61 µg/mL) | 1 to 20 (≈ 0.431 to 8.61 µg/mL) |  | 
COC(CN(C)c1nc2sc(C(=O)Nc3ccc4oc(C)nc4c3)cc2s1)C(F)(F)F (stereo not shown) [Compound 263] | > 20 | > 20 |  | 
O=C(Nc1ccc(Oc2ccc(Cl)cc2)cc1)c1cc2sc(N3CCNCC3)nc2s1 [Compound 345] | 1 to 20 (≈ 0.471 to 9.42 µg/mL) | < 1 |  | 
O=C(Nc1ccc(-c2ccc(F)nc2)cc1)c1cc2sc(NCC(O)C(F)(F)F)nc2s1 (stereo not shown) [Compound 341] | 1 to 20 (≈ 0.482 to 9.65 µg/mL) | < 1 |  | 
O=C(Nc1ccc(-c2ccc(F)nc2)cc1)c1cc2sc(NCCN3CCCCC3)nc2s1 [Compound 329] | 1 to 20 (≈ 0.482 to 9.63 µg/mL) | < 1 |  | 
CCCC(=O)Nc1nc2sc(C(=O)Nc3ccc4oc(C)nc4c3)cc2s1 [Compound 243] | > 20 | < 1 |  | 
Cc1ccc(-c2ccc(NC(=O)c3cc4sc(N5CCOCC5)nc4s3)cc2)nc1 [Compound 218] | > 20 | < 1 |  | 
COc1ccc(NC(=O)c2cc3sc(N4CCC(C(=O)O)CC4)nc3s2)cc1 [Compound 149] | 1 to 20 (≈ 0.418 to 8.35 µg/mL) | 1 to 20 (≈ 0.418 to 8.35 µg/mL) |  | 
